From paper PMC10745882, “Investigation of Drug-Interaction Potential for Arthritis Dietary Supplements: Chondroitin Sulfate, Glucosamine, and Methylsulfonylmethane” (Molecules, 2023)

Molecular target: T1, CYP2B6 (Homo sapiens, UniProt P20813)
T1 construct: Pooled human liver microsomes were purchased from BD Gentest; tissue BD Gentest; host or cells: pooled human liver microsomes
T1 sequence (P20813 1-491): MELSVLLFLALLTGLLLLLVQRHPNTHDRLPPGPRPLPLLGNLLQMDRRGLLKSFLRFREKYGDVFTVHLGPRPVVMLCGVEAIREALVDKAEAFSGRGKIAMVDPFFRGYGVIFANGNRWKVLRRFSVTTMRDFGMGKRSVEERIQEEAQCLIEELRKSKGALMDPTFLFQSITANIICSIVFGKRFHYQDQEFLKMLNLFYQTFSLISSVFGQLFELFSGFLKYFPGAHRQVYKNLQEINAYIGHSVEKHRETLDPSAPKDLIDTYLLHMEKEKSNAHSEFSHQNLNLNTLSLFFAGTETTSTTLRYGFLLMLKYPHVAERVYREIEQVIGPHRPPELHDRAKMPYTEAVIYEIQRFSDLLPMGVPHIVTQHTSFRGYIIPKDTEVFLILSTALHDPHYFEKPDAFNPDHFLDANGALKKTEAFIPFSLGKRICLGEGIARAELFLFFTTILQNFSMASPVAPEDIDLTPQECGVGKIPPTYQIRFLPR
Test: CYP inhibition assay in human liver microsomes (LC-MS/MS cocktail), bupropion to OH-bupropion
Format: in vitro ADME
Experimental: For the experimental method, the reference method was used. Briefly, incubation mixtures were composed of 0.5 mg/mL human liver microsomes; varying concentrations of CS in DW (0.1, 0.3, 1, 3, 10, 30, 100, and 200 µM) or MSM in DW (0.1, 0.3, 1, 3, 10, 30, 100, 300, and 1000 µM) or GCS in DMSO (0.1, 0.3, 1, 3, 10, 30, 100, 300, and 1000 µM); a substrate mixture in DMSO (40 µM phenacetin for CYP1A2; 2.5 µM coumarin for CYP2A6; 80 µM bupropion for CYP2B6; 10 µM diclofenac for CYP2C9; 80 µM [±]-mephenytoin for CYP2C19; 5 µM dextromethorphan for CYP2D6; 2.5 µM midazolam and 30 µM testosterone for CYP3A4); and an NADPH generating system (NGS; 0.1 M glucose-6-phosphate, 10 mg/mL β-NADP^+, and 1 U/mL glucose-6-phosphate dehydrogenase) in a total volume of 200 µL potassium phosphate buffer (0.1 M, pH 7.4). The reaction mixture, excluding NGS, underwent pre-incubation at 37 °C for 5 min, followed by further incubation with NGS for 30 min in a water bath. Well-established selective CYP inhibitors were employed as positive controls (40 µM ketoconazole for CYP3A4, 50 µM furafyllin for CYP1A2, 10 µM quinidine for CYP2D6, 125 µM ticlopidine for CYP2C19 and CYP2B6, 10 µM 8-methoxsalen for CYP2A6, and 10 µM sulfaphenazole for CYP2C9). Post incubation, the reaction was halted by adding 50 µL ice-cold 1% formic acid acetonitrile. After centrifugation at 13,200 rpm for 5 min, the supernatant was collected from the sample and subjected to analysis via an LC-MS/MS system. All experiments were performed in triplicate.
For the experimental method, the reference method was used. The LC-MS/MS system utilized in this study consisted of an Agilent 1260 binary pump HPLC system coupled with the Agilent 6460 Triple Quadrupole mass spectrometer (Agilent Technologies, Santa Clara, CA, USA), featuring an electrospray ionization source. Chromatographic separation was achieved using a Fortis C8 column (2.1 × 100 mm, 5.0 µm; Fortis Technologies Ltd., Neston, UK). The HPLC mobile phases comprised (A) 0.1% formic acid and (B) 0.1% formic acid in 90% acetonitrile. A gradient elution method was employed with an initial solvent B concentration of 15% and a flow rate of 0.25 mL/min. […] The total run time was 11.0 min, and the injection volume was 5 µL. Mass detection was conducted in the positive ion mode using multiple reaction monitoring (MRM). Specific MRM transitions for each analyte are detailed in Table S4.

Remaining Activities (% of Control, n = 3) (test substance 0.3 μM): 121.0 ± 11.6 % of Control
Remaining Activities (% of Control, n = 3) (test substance 1 μM): 116.2 ± 5.8 % of Control
Remaining Activities (% of Control, n = 3) (test substance 3 μM): 114.3 ± 3.5 % of Control
Remaining Activities (% of Control, n = 3) (test substance 10 μM): 108.2 ± 3.1 % of Control
Remaining Activities (% of Control, n = 3) (test substance 30 μM): 107.8 ± 1.3 % of Control
Remaining Activities (% of Control, n = 3) (test substance 100 μM): 111.2 ± 2.3 % of Control
Remaining Activities (% of Control, n = 3) (test substance 300 μM): 105.6 ± 1.8 % of Control
Remaining Activities (% of Control, n = 3) (test substance 1000 μM): 103.5 ± 9.2 % of Control
SMILES: N[C@H]1C(O)O[C@H](CO)[C@@H](O)[C@@H]1O (some centres unmarked) [GCS, glucosamine]
